Results as given in the NIST ThermoML archive (doi:10.1021/je900219w).
± gives the expanded uncertainty stated by the source.

Tests used:
[1] = xn = mol fraction of the nth substance listed; conditions: 101 kPa, Liquid; for viscosity: Capillary tube (Ostwald / Ubbelohde) method; for molar volume: Pycnometric method
[2] = 101 kPa, Liquid; for viscosity: Capillary tube (Ostwald / Ubbelohde) method; for molar volume: Pycnometric method

CCCCCCO [hexan-1-ol] + Cc1cccc(C)c1
[1], x1 = 1
Conditions	molar volume [m3/mol]	viscosity [mPa·s]
303.15 K	0.0001259 ± 1.5e-07	3.829 ± 0.048
313.15 K	0.000127 ± 1.5e-07	2.879 ± 0.036
323.15 K	0.0001281 ± 1.6e-07	2.215 ± 0.028

Cc1cccc(C)c1 [1,3-dimethylbenzene]
[2]
Conditions	molar volume [m3/mol]	viscosity [mPa·s]
303.15 K	0.0001241 ± 1.5e-07	0.5501 ± 0.0073
313.15 K	0.0001254 ± 1.5e-07	0.4944 ± 0.0067
323.15 K	0.0001266 ± 1.6e-07	0.4472 ± 0.0061

CCCCCCO [hexan-1-ol]
[2]
Conditions	molar volume [m3/mol]	viscosity [mPa·s]
303.15 K	0.0001259 ± 1.5e-07	3.829 ± 0.048
313.15 K	0.000127 ± 1.5e-07	2.879 ± 0.036
323.15 K	0.0001281 ± 1.6e-07	2.215 ± 0.028

Cc1cccc(C)c1 [1,3-dimethylbenzene] + CCCCCCO
[1]
Conditions	molar volume, 303.15 K [m3/mol]	molar volume, 313.15 K [m3/mol]	molar volume, 323.15 K [m3/mol]	viscosity, 303.15 K [mPa·s]	viscosity, 313.15 K [mPa·s]	viscosity, 323.15 K [mPa·s]
x2 = 0	0.0001241 ± 1.5e-07	0.0001254 ± 1.5e-07	0.0001266 ± 1.6e-07	0.5501 ± 0.0073	0.4944 ± 0.0067	0.4472 ± 0.0061
x2 = 0.1	0.0001243 ± 1.5e-07	0.0001256 ± 1.5e-07	0.0001269 ± 1.6e-07	0.5979 ± 0.0079	0.5309 ± 0.0071	0.4743 ± 0.0064
x2 = 0.2	0.0001246 ± 1.5e-07	0.0001258 ± 1.5e-07	0.0001272 ± 1.6e-07	0.6825 ± 0.009	0.5975 ± 0.0079	0.5277 ± 0.0071
x2 = 0.3	0.0001248 ± 1.5e-07	0.000126 ± 1.5e-07	0.0001273 ± 1.6e-07	0.7998 ± 0.01	0.6894 ± 0.0091	0.6009 ± 0.008
x2 = 0.4	0.0001249 ± 1.5e-07	0.0001262 ± 1.5e-07	0.0001275 ± 1.6e-07	0.9537 ± 0.012	0.8068 ± 0.01	0.6925 ± 0.0091
x2 = 0.5	0.0001251 ± 1.5e-07	0.0001263 ± 1.5e-07	0.0001276 ± 1.6e-07	1.161 ± 0.015	0.9645 ± 0.013	0.8141 ± 0.011
x2 = 0.6	0.0001253 ± 1.5e-07	0.0001265 ± 1.5e-07	0.0001277 ± 1.6e-07	1.442 ± 0.018	1.173 ± 0.015	0.97 ± 0.013
x2 = 0.7	0.0001254 ± 1.5e-07	0.0001266 ± 1.5e-07	0.0001278 ± 1.6e-07	1.833 ± 0.023	1.457 ± 0.019	1.179 ± 0.015
x2 = 0.8	0.0001255 ± 1.5e-07	0.0001267 ± 1.5e-07	0.0001279 ± 1.6e-07	2.357 ± 0.03	1.833 ± 0.023	1.448 ± 0.019
x2 = 0.9	0.0001257 ± 1.5e-07	0.0001269 ± 1.5e-07	0.000128 ± 1.6e-07	3.032 ± 0.038	2.309 ± 0.029	1.797 ± 0.023
